The source of these data is patent US20220267260A1, “COMPOUNDS CONTAINING A SULFONIC GROUP AS KAT INHIBITORS” (Epizyme, Inc., priority 2016, published 2022).

Where a name gives a salt, the structure may show the parent alone. A value given as a limit tells only on which side of the number the result lay.

One test deals with T1, KAT5 (Homo sapiens, UniProt Q92993).
T1 construct: His-TEV tag (N, cleaved yes); made in house
The experiment in a line: KAT5 enzyme inhibition assay (SAMDI mass spectrometry). In kind it is biochemical. The note with it: His-TEV-FL KAT5-Flag enzyme construct.

The target in the next test is T2, KAT6A (Homo sapiens, UniProt Q92794).
T2 construct: His-TEV tag (N, cleaved yes); made in house
The test can be described thus: KAT6A enzyme inhibition assay (SAMDI mass spectrometry). In kind it is biochemical. The note with it: His-TEV-KAT6A 501-784 enzyme construct.

T1 sequence (Q92993 with tags, fused parts or gaps): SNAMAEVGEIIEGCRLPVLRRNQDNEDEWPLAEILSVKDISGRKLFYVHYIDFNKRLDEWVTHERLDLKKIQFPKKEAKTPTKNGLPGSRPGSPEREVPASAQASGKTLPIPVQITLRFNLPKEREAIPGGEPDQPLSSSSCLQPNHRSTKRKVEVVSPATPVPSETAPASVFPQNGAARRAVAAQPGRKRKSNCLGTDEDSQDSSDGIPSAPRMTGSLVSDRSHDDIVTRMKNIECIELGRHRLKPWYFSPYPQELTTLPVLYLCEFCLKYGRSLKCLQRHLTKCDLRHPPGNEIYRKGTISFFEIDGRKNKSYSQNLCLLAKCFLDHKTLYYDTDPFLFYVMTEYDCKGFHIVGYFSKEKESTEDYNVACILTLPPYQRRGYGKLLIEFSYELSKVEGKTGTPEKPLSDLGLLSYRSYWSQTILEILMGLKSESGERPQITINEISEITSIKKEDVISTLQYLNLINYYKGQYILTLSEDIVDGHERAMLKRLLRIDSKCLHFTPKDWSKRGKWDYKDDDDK
T2 sequence (Q92794 with tags, fused parts or gaps): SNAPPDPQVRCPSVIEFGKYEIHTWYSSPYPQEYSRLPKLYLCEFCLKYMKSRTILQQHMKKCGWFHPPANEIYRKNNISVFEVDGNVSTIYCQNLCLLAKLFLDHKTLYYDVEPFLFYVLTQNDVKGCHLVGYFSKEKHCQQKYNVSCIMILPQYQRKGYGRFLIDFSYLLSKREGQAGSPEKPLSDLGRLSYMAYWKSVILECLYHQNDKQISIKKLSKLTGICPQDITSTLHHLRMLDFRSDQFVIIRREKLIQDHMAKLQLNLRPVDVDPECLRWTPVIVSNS

The term IC50 denotes the concentration needed to halve the response being measured. Low readings indicate inhibition by little substance, high ones a need for much substance. `COCCOc1cccc(-c2cc(C)c(F)c(C(=O)NNS(=O)(=O)C3CCCCC3)c2)c1` [Compound I-272]: the IC50 at KAT5 fell in the range of 10 to 50 µM; against KAT6A, 50 to 100 µM.

For the molecule `Cc1cc(-c2ccccc2)c(F)c(C(=O)NNS(=O)(=O)c2ccccc2)c1F` [Compound I-223], the IC50 against KAT5 and on KAT6A was at most 10 µM throughout.

Turning to `O=C(NNS(=O)(=O)C1CCCCC1)c1cc(-c2cccc(F)c2)cc(Cl)c1F` [Compound I-395], the IC50 against KAT5 and on KAT6A was at most 10 µM each time.

On to `COCC(=O)N1CCCC(CS(=O)(=O)NNC(=O)c2cc(-c3cccc(F)c3)cc(C)c2F)C1` (centres unmarked) [Compound I-289], for which the IC50 on KAT5 and against KAT6A was at most 10 µM throughout.

In the case of `Cc1cccc(F)c1C(=O)NNS(=O)(=O)c1ccccc1` [Compound I-135], the IC50 against KAT5 and on KAT6A was over 100 µM throughout.

`COc1ccc(S(=O)(=O)NNC(=O)c2c(F)ccc(-c3ccccc3)c2C)cc1` [Compound I-186]: the IC50 against KAT5 lay in the range of 50 to 100 µM; on KAT6A, 10 to 50 µM.

As to `COCCN1CC(S(=O)(=O)NNC(=O)c2cccc(C)c2F)C1` [Compound I-103], the IC50 at KAT5 and against KAT6A was over 100 µM each time.

Turning to `Cc1cc(-c2ccccc2)cc(C(=O)NNS(=O)(=O)C2CCCN(C)C2)c1F` (centres unmarked) [Compound I-98], the IC50 against KAT5 is over 100 µM; against KAT6A it was 10 to 50 µM.

For `Cc1cc(-c2cc(F)cc(F)c2)cc(C(=O)NNS(=O)(=O)C2CCCCC2)c1F` [Compound I-317], the IC50 against KAT5 was at most 10 µM; at KAT6A, 10 to 50 µM.

Take `Cc1cc(-c2ccccc2)cc(C(=O)NNS(=O)(=O)CC2CN(C(=O)OC(C)(C)C)C2)c1F` [Compound I-207]: the IC50 on KAT5 and on KAT6A was at most 10 µM throughout.

`O=C(NNS(=O)(=O)CC1CCCN(C(=O)C2CCC2)C1)c1cc(-c2cccc(F)c2)cc(Cl)c1F` (centres unmarked) [Compound I-417]: the IC50 on KAT5 and on KAT6A was at most 10 µM each time.

On to `COc1cc(-c2ccccc2)cc(C(=O)NNS(=O)(=O)c2ccccc2)c1F` [Compound I-129], for which the values for the IC50 at KAT5 and against KAT6A were 10 to 50 µM and at most 10 µM, respectively.

For `Cn1c(NNS(=O)(=O)c2ccccc2)nc2ccccc21` [Compound I-13], the IC50 on KAT5 and on KAT6A was over 100 µM in each case.

With `Cc1cc(-c2ccccc2)cc(C(=O)NNS(=O)(=O)C2CCN(C)CC2)c1F` [Compound I-90], the IC50 against KAT5 and against KAT6A was 10 to 50 µM throughout.

For `Cc1cnc(CNC(=O)c2cc(-c3ccccc3)cc(C)c2F)[nH]1` [Compound I-295], the IC50 at KAT5 and on KAT6A was over 100 µM throughout.

As to `Cc1cc(-c2ccccc2F)cc(C(=O)NNS(=O)(=O)C2CCCCC2)c1F` [Compound I-321], the values for the IC50 against KAT5 and on KAT6A were at most 10 µM and 10 to 50 µM, respectively.

As to `O=C(NNS(=O)(=O)c1ccccc1)c1ccccc1F` [Compound I-165], the values for the IC50 against KAT5 and against KAT6A were over 100 µM and 10 to 50 µM, respectively.

Consider `O=C(NNS(=O)(=O)c1ccccc1)c1cc(-c2ccccc2)cc2cc[nH]c12` [Compound I-14], for which the IC50 at KAT5 and at KAT6A was 10 to 50 µM each time.

For `O=C(NNS(=O)(=O)c1ccccc1)c1ccccc1Cl` [Compound I-149], the IC50 against KAT5 and against KAT6A was over 100 µM each time.

On to `CC(=O)N1CCOC(CS(=O)(=O)NNC(=O)c2cc(-c3ccccc3)cc(C)c2F)C1` (centres unmarked) [Compound I-427], for which the IC50 on KAT5 and at KAT6A was at most 10 µM each time.

On to `Cc1cc(-c2ccccc2)cc(C(=O)NNS(=O)(=O)CC2CCCNC2)c1F` (centres unmarked) [Compound I-351], for which the figures for the 50% inhibitory concentration (IC50) against KAT5 and at KAT6A were 10 to 50 µM and over 100 µM, respectively.

Regarding `CNC(=O)c1cc(Cl)c(F)c(C(=O)NNS(=O)(=O)C2CCOCC2)c1` [Compound I-491], the IC50 against KAT5 and at KAT6A was over 100 µM in each case.

Take `Cc1c(-c2ccccc2)ccc(F)c1C(=O)NNS(=O)(=O)c1ccccc1` [Compound I-251]: the IC50 on KAT5 was 50 to 100 µM; at KAT6A, at most 10 µM.

With `Cc1cc(-c2ccccc2)cc(C(=O)NNS(=O)(=O)CC2CCN(CCO)CC2)c1F` [Compound I-343], the IC50 at KAT5 and against KAT6A was 10 to 50 µM in each case.

As for `Cc1cc(-c2ccccc2)cc(C(=O)NCCS(=O)(=O)Nc2ccccc2)c1F` [Compound I-75], the IC50 against KAT5 fell in the range of 50 to 100 µM; against KAT6A it was 10 to 50 µM.

Regarding `COc1ccc(Cn2ncc3c(C(=O)NNS(=O)(=O)c4ccccc4)cc(-c4ccccc4)cc32)cc1` [Compound I-247], the values for the IC50 at KAT5 and against KAT6A were 50 to 100 µM and 10 to 50 µM, respectively.

Take `Cc1c(-c2ccccc2)ccc(F)c1C(=O)NNS(=O)(=O)Cc1ccccc1` [Compound I-361]: the results for the IC50 on KAT5 and at KAT6A were 50 to 100 µM and over 100 µM, respectively.

As for `Cc1cc(-c2ccccc2)cc(C(=O)N2CCC(S(=O)(=O)c3ccccc3)C2)c1F` (centres unmarked) [Compound I-73], the IC50 at KAT5 and against KAT6A was over 100 µM in each case.

Regarding `COc1ccccc1CN1CC(S(=O)(=O)NNC(=O)c2cc(-c3ccccc3)cc(C)c2F)C1` [Compound I-22, N′-(4-fluoro-5-methyl-[1,1′-biphenyl]-3-carbonyl)-1-(2-methoxybenzyl)azetidine-3-sulfonohydrazide], the IC50 against KAT5 and at KAT6A was 10 to 50 µM throughout.

As for `O=C(NNS(=O)(=O)C1CCCCC1)c1ccccc1F` [Compound I-116], the IC50 against KAT5 and against KAT6A was over 100 µM each time.

For the molecule `Cc1cccc(-c2cc(Cl)c(F)c(C(=O)NNS(=O)(=O)CC3CCCN(C(=O)C4CCC4)C3)c2)c1` (centres unmarked) [Compound I-512], the results for the 50% inhibitory concentration (IC50) at KAT5 and against KAT6A were at most 10 µM and over 100 µM, respectively.

`Cc1cc(-c2cccc(OCCN(C)C)c2)cc(C(=O)NNS(=O)(=O)C2CCCCC2)c1F` [Compound I-403]: the IC50 at KAT5 and at KAT6A was over 100 µM in each case.

Consider `O=C(NNS(=O)(=O)c1cccc(Cl)c1)c1c(F)ccc(Cl)c1F` [Compound I-198], for which the IC50 was 50 to 100 µM against KAT5 and at most 10 µM against KAT6A.

Turning to `Cc1cccc(-c2cc(C)c(F)c(C(=O)NNS(=O)(=O)C3CCCCC3)c2)c1` [Compound I-301], the IC50 at KAT5 fell in the range of 10 to 50 µM; at KAT6A, 50 to 100 µM.

Consider `Cc1cc(-c2ccccc2)cc(C(=O)NNS(=O)(=O)CC2CCN(C(=O)OC(C)(C)C)CC2)c1F` [Compound I-224], for which the IC50 against KAT5 and at KAT6A was at most 10 µM each time.

Consider `Cc1cc(Br)cc(C(=O)NNS(=O)(=O)C2CCCCC2)c1F` [Compound I-293], for which the IC50 against KAT5 was at most 10 µM; on KAT6A, 50 to 100 µM.

Take `Cc1cc(-c2ccccc2)cc(C(=O)NCC(O)c2ccccc2)c1F` (centres unmarked) [Compound I-178]: the IC50 against KAT5 and against KAT6A was over 100 µM each time.

For `O=C(NNS(=O)(=O)C1CCCCC1)c1cc(-c2ccccc2)cc(Cl)c1F` [Compound I-306], the IC50 on KAT5 and against KAT6A was at most 10 µM throughout.

For the molecule `Cc1cc(-c2ccccc2)cc(C(=O)NNS(=O)(=O)C2CNC2)c1F` [Compound I-120, N′-(4-Fluoro-5-methyl-[1,1′-biphenyl]-3-carbonyl)azetidine-3-sulfonohydrazide hydrochloride], the IC50 against KAT5 and against KAT6A was over 100 µM in each case.

In the case of `O=C(NNS(=O)(=O)c1ccccc1)c1c(F)c(Cl)cc(-c2ccccc2)c1F` [Compound I-136], the IC50 against KAT5 and on KAT6A was at most 10 µM throughout.

For the molecule `Cc1cc(-c2ccccc2)cc(C(=O)NNS(=O)(=O)Cc2ccc(Cl)cc2)c1F` [Compound I-6], the IC50 on KAT5 and against KAT6A was at most 10 µM throughout.

With `CNC(=O)c1cccc(-c2cc(C)c(F)c(C(=O)NNS(=O)(=O)c3ccccc3)c2)c1` [Compound I-415], the IC50 on KAT5 was 10 to 50 µM; at KAT6A, at most 10 µM.

With `Cc1cccc(C(=O)NNS(=O)(=O)C2CNC2)c1F` [Compound I-203], the IC50 against KAT5 and at KAT6A was over 100 µM throughout.

Turning to `O=C(NNS(=O)(=O)c1ccccc1)c1ncccc1F` [Compound I-252], the IC50 on KAT5 is over 100 µM; against KAT6A, 50 to 100 µM.

Regarding `COCCC(=O)N1CC(S(=O)(=O)NNC(=O)c2cc(-c3ccccc3)cc(C)c2F)C1` [Compound I-115], the IC50 against KAT5 was 50 to 100 µM; against KAT6A, 10 to 50 µM.

Consider `Cc1cc(-c2ccccc2)cc(C(=O)NNS(=O)(=O)Cc2cccc(F)c2)c1F` [Compound I-83], for which the IC50 against KAT5 and against KAT6A was at most 10 µM in each case.

With `CCC(=O)N1CCC(S(=O)(=O)NNC(=O)c2cc(-c3ccccc3)cc(C)c2F)C1` (centres unmarked) [Compound I-104], the IC50 at KAT5 lay within 50 to 100 µM; against KAT6A, 10 to 50 µM.

As for `Cc1cc(-c2ccccc2)cc(C(=O)NNS(=O)(=O)C2CN(C(=O)c3ccccc3)C2)c1F` [Compound I-34], the IC50 on KAT5 and against KAT6A was 10 to 50 µM each time.

Take `COc1ccc(CS(=O)(=O)NNC(=O)c2cc(-c3ccccc3)cc(C)c2F)cc1` [Compound I-81]: the results for the IC50 against KAT5 and against KAT6A were 50 to 100 µM and 10 to 50 µM, respectively.

In the case of `Cc1cc(C2CCCN(C)C2)cc(C(=O)NNS(=O)(=O)C2CCCCC2)c1F` (centres unmarked) [Compound I-287], the IC50 on KAT5 and at KAT6A was over 100 µM each time.

`O=C(NNS(=O)(=O)CC1CCCNC1)c1cc(-c2ccccc2)cc(Cl)c1F` (centres unmarked) [Compound I-410]: the IC50 at KAT5 and against KAT6A was 10 to 50 µM throughout.

Regarding `Cc1c(-c2ccccc2)ccc(F)c1C(=O)NNS(=O)(=O)c1ccc(Cl)cc1` [Compound I-241], the values for the IC50 against KAT5 and against KAT6A were 50 to 100 µM and 10 to 50 µM, respectively.

`Cc1c(-c2ccccc2)ccc(F)c1C(=O)NNS(=O)(=O)c1cccc(Cl)c1` [Compound I-128]: the 50% inhibitory concentration (IC50) lay in the range of 50 to 100 µM against KAT5 and 10 to 50 µM on KAT6A.

Take `Cc1cccc(-c2cc(Cl)c(F)c(C(=O)NNS(=O)(=O)CC3CCCN(C(=O)OC(C)(C)C)C3)c2)c1` (centres unmarked) [Compound I-513]: the IC50 against KAT5 is at most 10 µM; against KAT6A, over 100 µM.

Turning to `O=C(NNS(=O)(=O)c1ccccc1)c1ccccn1` [Compound I-194], the IC50 at KAT5 and against KAT6A was over 100 µM in each case.
